Assay [1] can be described thus: Binding affinity to AAC(6')-lb (unknown origin).
Assay [2] in a line: Inhibition of AAC(6')-lb (unknown origin).
A short description of assay [3]: Binding affinity to biotinylated Escherichia coli 16S rRNA A-site.
The nature of assay [4]: Ratio of Kcat to Km for AAC(6')-li (unknown origin).
Assay [5] can be described thus: Activity at AAC(6')-li (unknown origin).
A further assay concerns Escherichia coli. In words: Antibacterial activity against Escherichia coli ATCC 25922. Type of assay: functional.
Assay [6] is described as follows: Inhibition of AAC(6')-ly (unknown origin) in presence of ribostamycin.
Assay [7] in a line: Inhibition of AAC(6')-ly (unknown origin) in presence of kanamycin A.

Results on 5 molecules are retold here after ChEMBL document CHEMBL3217485, “Understanding and overcoming aminoglycoside resistance caused by N-6'-acetyltransferase” (Medchemcomm, 2012).

In brackets after ≈: the same amount, converted by molar mass.

In turn, `CC(C)(COP(=O)(O)OP(=O)(O)OC[C@H]1O[C@@H](n2cnc3c(N)ncnc32)[C@H](O)[C@@H]1OP(=O)(O)O)[C@@H](O)C(=O)NCCC(=O)NCCSCC(=O)NCc1ccc(O[C@H]2C[C@H](N)C[C@@H]2N)cc1` had a Kd in assay [1] of 0.95 µM. The molecule also had an inhibition constant (Ki) in assay [2] of 0.5 µM.
The molecule `NC[C@H]1O[C@H](O[C@H]2[C@H](OCC(=O)NCCCNC(=O)CO[C@@H]3[C@@H](O)[C@H](N)C[C@H](N)[C@H]3O[C@H]3O[C@H](CN)[C@@H](O)[C@H](O)[C@H]3N)[C@@H](O)[C@H](N)C[C@@H]2N)[C@H](N)[C@@H](O)[C@@H]1O` registered an equilibrium dissociation constant (Kd) in assay [3] of 1.1 µM. For the same molecule, the kcat/Km in assay [4] is 1.6 ×10⁴ /M/s. For the same molecule, in assay [5], the Km stood at 53.4 µM and the kcat is 0.86 s⁻¹. The molecule further showed a minimal inhibitory concentration (MIC) against Escherichia coli of 31 µM (≈ 24.8 µg/mL).
In assay [3], `NC[C@H]1O[C@H](O[C@H]2[C@H](O)[C@@H](O)[C@H](N)C[C@@H]2N)[C@H](N)[C@@H](O)[C@@H]1O` [NEAMINE] yielded a Kd of 10 µM. Also, in assay [4], the kcat/Km was found to be 7.2 ×10⁴ /M/s. In addition, in assay [5], the Michaelis constant (Km) was found to be 5.82 µM and the kcat stood at 0.419 s⁻¹. It took 50 µM (≈ 16.1 µg/mL) to inhibit growth with Escherichia coli (MIC).
For `N=C(N)N[C@H]1[C@@H](O[C@H]2[C@H](O[C@@H]3O[C@H](CO)[C@@H](O)[C@H]3O)[C@@H](O)[C@H](NC(=N)N)C[C@@H]2NC(=N)N)O[C@H](CNC(=O)CCN)[C@@H](O)[C@@H]1O`, the Kii in assay [6] is 92 µM; in assay [7], 23 µM. Further, the values for the Kis in assay [6] and in assay [7] were 17 µM and 31 µM, respectively.
Molecule `CN(CCCCN(C)C[C@@H](O)CO[C@@H]1[C@@H](O)[C@H](N)C[C@H](N)[C@H]1O[C@H]1O[C@H](CN)[C@@H](O)[C@H](O)[C@H]1N)C[C@@H](O)CO[C@@H]1[C@@H](O)[C@H](N)C[C@H](N)[C@H]1O[C@H]1O[C@H](CN)[C@@H](O)[C@H](O)[C@H]1N` registered a dissociation constant Kd in assay [3] of 0.04 µM. Besides, the kcat/Km in assay [4] was 0.93 ×10⁴ /M/s. For the same molecule, in assay [5], the Km turned out to be 28.7 µM and the kcat amounted to 0.26 s⁻¹. For the same molecule, the MIC against Escherichia coli came to 6.25 µM (≈ 5.46 µg/mL).
